Experimental data: ChEMBL document CHEMBL3885861, “Open TG-GATES”

Organism: Rattus norvegicus
Assay: Open TG-GATES - Regimen: Single
Type: toxicity, organism-based, Sprague-Dawley
Set-up: regimen Single, gender Male, age 6 weeks
Details: in vivo, iv, route intravenous injection; for APTT / Bas / Eos / Fbg / Lym / MCHC / MCV / Mono / Neu / Plat / RBC / Ret / WBC / Ht / PT / Hb: tissue Blood; for KIDNEY_L / KIDNEY_R / KIDNEY_TOTAL: tissue Kidney; for LIVER: tissue Liver
[1] = 0 mg/kg, 3 h, dose level Control
[2] = 0 mg/kg, 3 h, tissue Plasma, dose level Control
[3] = 0 mg/kg, 6 h, dose level Control
[4] = 0 mg/kg, 6 h, tissue Plasma, dose level Control
[5] = 0 mg/kg, 9 h, dose level Control
[6] = 0 mg/kg, 9 h, tissue Plasma, dose level Control
[7] = 0 mg/kg, 24 h, dose level Control
[8] = 0 mg/kg, 24 h, tissue Plasma, dose level Control

Work on GENTAMICIN yielded a TERMINAL_BW [1] of 212.9 g, an APTT [1] of 22 s and a Bas [1] of 0%. The Eos [1] was 0.8%, the Fbg [1] was 293.2 mg/dL and the Lym [1] was 79.6%. For the same sequence, the MCHC [1] was 33.9%, the MCV [1] was 61.4 fL and the Mono [1] was 2.8%. For the same sequence, the Neu [1] was 16%, the Plat [1] was 119.4 x10_4/uL and the RBC [1] was 631.2 x10_4/ul. It also gave a Ret [1] of 6.4%, a WBC [1] of 123.3 x10_2/uL and a KIDNEY_L [1] of 0.9 g. The KIDNEY_R [1] was 0.9 g, the KIDNEY_TOTAL [1] was 1.9 g and the LIVER [1] was 9.3 g. For the same sequence, the ALP [2] was 1296.6 IU/L, the ALT [2] was 39.2 IU/L and the AST [2] was 70.6 IU/L. It also gave a CRE [2] of 0.2 mg/dL, a DBIL [2] of 0 mg/dL and a GLC [2] of 187.4 mg/dL. It also gave an IP [2] of 7.4 mg/dL, a K [2] of 4.4 meq/L and an LDH [2] of 165.6 IU/L. For the same sequence, the PL [2] was 121.4 mg/dL, the RALB [2] was 2.9 g/dL and the TBIL [2] was 0.022 mg/dL. For the same sequence, the TC [2] was 63.6 mg/dL, the TG [2] was 71 mg/dL and the TP [2] was 5.3 g/dL. For the same sequence, the gamma-GTP [2] was 1.2 IU/L, the TERMINAL_BW [3] was 209.6 g and the APTT [3] was 23.6 s. For the same sequence, the Bas [3] was 0%, the Eos [3] was 0.6% and the Fbg [3] was 270.6 mg/dL. For the same sequence, the Ht [3] was 39.7%, the MCHC [3] was 33.6% and the Mono [3] was 2.6%. The PT [3] was 16.4 s, the Plat [3] was 119.5 x10_4/uL and the RBC [3] was 629 x10_4/ul. The Ret [3] was 7%, the WBC [3] was 123.2 x10_2/uL and the KIDNEY_L [3] was 0.9 g. For the same sequence, the KIDNEY_R [3] was 0.9 g, the KIDNEY_TOTAL [3] was 1.8 g and the LIVER [3] was 8.7 g. The ALP [4] was 1253 IU/L, the ALT [4] was 36.6 IU/L and the AST [4] was 70.2 IU/L. The BUN [4] was 11.2 mg/dL, the CRE [4] was 0.2 mg/dL and the DBIL [4] was 0 mg/dL. The IP [4] was 8.3 mg/dL, the K [4] was 4.4 meq/L and the LDH [4] was 199.6 IU/L. For the same sequence, the RALB [4] was 2.9 g/dL, the TBIL [4] was 0.018 mg/dL and the TC [4] was 74 mg/dL. It also gave a TG [4] of 75 mg/dL, a TP [4] of 5.3 g/dL and a gamma-GTP [4] of 1.2 IU/L. It also gave an APTT [5] of 22.8 s, a Bas [5] of 0% and an Eos [5] of 1%. It also gave a Fbg [5] of 313.6 mg/dL, a Hb [5] of 12.9 g/dL and a Ht [5] of 38.5%. For the same sequence, the Lym [5] was 82%, the MCHC [5] was 33.5% and the MCV [5] was 61.2 fL. It also gave a Mono [5] of 2.6%, a PT [5] of 16 s and a Plat [5] of 124.4 x10_4/uL. For the same sequence, the RBC [5] was 628 x10_4/ul, the Ret [5] was 6.9% and the WBC [5] was 82.5 x10_2/uL. For the same sequence, the KIDNEY_L [5] was 0.9 g, the KIDNEY_R [5] was 0.9 g and the KIDNEY_TOTAL [5] was 1.8 g. The LIVER [5] was 8.3 g, the ALP [6] was 1527.6 IU/L and the ALT [6] was 36.4 IU/L. The AST [6] was 67.4 IU/L, the CRE [6] was 0.2 mg/dL and the DBIL [6] was 0 mg/dL. The GLC [6] was 199.2 mg/dL, the IP [6] was 9.5 mg/dL and the K [6] was 4.1 meq/L. For the same sequence, the LDH [6] was 131.6 IU/L, the PL [6] was 126.2 mg/dL and the RALB [6] was 2.9 g/dL. The TBIL [6] was 0.022 mg/dL, the TG [6] was 38.2 mg/dL and the TP [6] was 5.4 g/dL. For the same sequence, the gamma-GTP [6] was 1.2 IU/L, the TERMINAL_BW [7] was 228.2 g and the APTT [7] was 23.4 s. The Bas [7] was 0%, the Eos [7] was 1% and the Fbg [7] was 293.6 mg/dL. It also gave a Ht [7] of 38.2%, an MCHC [7] of 34.3% and an MCV [7] of 61.9 fL. For the same sequence, the Mono [7] was 2.6%, the Neu [7] was 16% and the Plat [7] was 125.4 x10_4/uL. For the same sequence, the RBC [7] was 618.6 x10_4/ul, the Ret [7] was 5.8% and the WBC [7] was 109.8 x10_2/uL. For the same sequence, the KIDNEY_L [7] was 1 g, the KIDNEY_R [7] was 1 g and the KIDNEY_TOTAL [7] was 2 g. The ALP [8] was 1416.8 IU/L, the AST [8] was 71.6 IU/L and the BUN [8] was 15 mg/dL. The CRE [8] was 0.2 mg/dL, the DBIL [8] was 0 mg/dL and the IP [8] was 6.9 mg/dL. It also gave a K [8] of 4.4 meq/L, an LDH [8] of 156.8 IU/L and a Na [8] of 140.4 meq/L. For the same sequence, the PL [8] was 138.2 mg/dL, the RALB [8] was 3 g/dL and the TBIL [8] was 0.012 mg/dL. It also gave a TC [8] of 68.4 mg/dL, a TG [8] of 114.4 mg/dL and a TP [8] of 5.4 g/dL. For the same sequence, the gamma-GTP [8] was 1.4 IU/L, the TERMINAL_BW (10 mg/kg, 3 h, dose level Low) was 211.7 g and the APTT (10 mg/kg, 3 h, dose level Low) was 22.2 s. For the same sequence, the Bas (10 mg/kg, 3 h, dose level Low) was 0%, the Eos (10 mg/kg, 3 h, dose level Low) was 0.2% and the Fbg (10 mg/kg, 3 h, dose level Low) was 301.8 mg/dL. The Hb (10 mg/kg, 3 h, dose level Low) was 13 g/dL and the Ht (10 mg/kg, 3 h, dose level Low) was 38.1%.
